Test results as given in patent publication US20070249545A1, “DIHYDROFOLATE REDUCTASE INHIBITION BY EPIGALLOCATECHIN GALLATE COMPOUNDS” (priority 2004, published 2007).
Read-outs that look alike come from different tables or passages of the source.

Tests used:
bovine liver DHFR = target: T1, bovine liver DHFR (Bos taurus, UniProt P00376); test: Kinetic analysis of inhibition of bovine liver DHFR; type: biochemical
T1 construct: from tissue; host or cells: bovine liver
T1 sequence (P00376 1-187): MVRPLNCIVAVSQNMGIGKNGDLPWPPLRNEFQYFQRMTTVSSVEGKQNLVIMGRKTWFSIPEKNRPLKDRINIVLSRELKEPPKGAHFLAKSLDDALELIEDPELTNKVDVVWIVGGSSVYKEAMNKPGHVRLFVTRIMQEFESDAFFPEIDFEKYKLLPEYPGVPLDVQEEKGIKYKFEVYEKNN
Procedure: The activity of DHFR was determined at 25° C. by following the decrease of NADPH and DHF by absorbance measurements at 340 nm (ε=11,800 M^−1 cm^−1) by using a Perkin-Elmer Lambda-2 spectrophotometer with cuvettes of 1.0 cm light-path.
Experiments were performed at pH 7.58 and 25° C. in a buffer containing 2-(N-morpholino)ethanesulfonic acid (MES, 25 mM), sodium acetate (25 mM), tris(hydroxymethyl)aminomethane (Tris 50 mM), and NaCl (100 mM). To prevent the oxidation of catechins, the reaction mixture contained 1 mM ascorbic acid. The pH of the reaction was measured before and after of the experiment. The assays were started by the addition of enzyme. In the absence of the enzyme, the rate of change of absorbance was negligible. […]
Progress curves for the slow, tight-binding inhibition of bovine liver DHFR by EGCG were determined by continuously monitoring the disappearance of NADPH and DHF after initiation of the reaction by the addition of 3.3 nM enzyme. Reaction mixtures contained buffer, NADPH (100 μM), DHF (20 μM) and EGCG. Assuming that the concentration of free inhibitor is not substantially altered by the formation of an enzyme-NADPH-inhibitor complex, the progress curve for the inhibition in the presence of saturating NADPH is described by Eqn. (1): P=vst+(v0−vs)(1−exp(−k′t))/k′
where vs, v0 and k′ represent the steady-state velocity, initial velocity and apparent first-order rate constant, respectively.
The values of k′ at different EGCG concentrations were obtained by non-linear regression analysis of the progress curves. KI and KI* denote the respective dissociation constants for the initial and equilibrium binding of inhibitors to the enzyme-NADPH complex (FIG. 5).

p16 = p16 methylation status in Caco-2 cells; details: EGCG 20 μM, 7-days treatment

(−)-epigallocatechin gallate [EGCG] showed a k5 (bovine liver DHFR) of 0.13 min⁻¹, a k5/k6 (bovine liver DHFR) of 32.5 ratio and a k6 (bovine liver DHFR) of 0.004 min⁻¹. For the same substance, the type of inhibition (bovine liver DHFR) was “slow tight-binding inhibitor”, the Ki (bovine liver DHFR; equilibrium binding to enzyme-NADPH complex, read-out: KI*) was 2.9 nM and the Ki (bovine liver DHFR; initial binding to enzyme-NADPH complex, pH 7.58, 25° C., read-out: KI) was 109 nM. For the same substance, the p16 methylation pattern (p16) was “changed from methylated to unmethylated”.
